Common to all, as to format: biochemical
Assay [1] concerns the target Fusarium oxysporum IFO-9972 fructosyl amino acid oxidase (FOD), mutant FOD-V, 372nd lysine of SEQ ID NO: 1 replaced with valine, SEQ ID NO: 4 (Fusarium oxysporum, UniProt X0D315, K373V). In words: Substrate specificity of mutant FOD-V, Table 6 (372nd lysine replaced with valine). Particulars: for Kcat: substrate glycated amino acid. The procedure:
(§1) <<Method for Measuring Activity of Enzyme Reacting with Glycated Amino Acid>>
(§2) <Composition of Reaction Solution>
(§3) The glycated amino acid substrate specificity of FOD-mutated recombinant contained in the cell extract prepared in Example 16 was measured using the above-mentioned FOD enzyme activity measuring method. As a result, two mutants of which the reactivity with glycated valine is less than 1/1,000 the reactivity with glycated lysine were identified among candidate strains. These were regarded as the target mutants.
(§4) To observe the effect of replacement with other amino acids at the mutated amino acid site identified in Example 19, the site-directed mutagenesis according to the method of Kunkel et al. was carried out. Synthesis of an oligonucleotide having the base sequence of 1-27 in the sequence table Sequence ID No. 7 was consigned to an outside source (BEX Co., Ltd.). The oligonucleotide was subjected to the site-directed mutagenesis using the Mutan-K kit (manufactured by Takara Shuzo Co., Ltd.) according to the manual attached to the kit. The mutant gene obtained was incorporated again into the expression plasmid pTV119N, introduced into Escherichia coli host, and cultured at 30° C. for 16 hours in a 3.7% BHI liquid medium containing 50 μg/ml of ampicillin and 1 mM of IPTG to produce mutant FOD protein.
(§5) The mutant obtained by replacing the lysine with tryptophan was named FOD-W, the expression plasmid producing the FOD-W was named pcmFOD3, the mutant obtained by replacing the lysine with methionine was named FOD-M, the expression plasmid producing the FOD-M was named pcmFOD4, the mutant obtained by replacing the lysine with valine was named FOD-V, and the expression plasmid producing the FOD-V was named pcmFOD5.

Assay [2] deals with Fusarium oxysporum IFO-9972 fructosyl amino acid oxidase (FOD), mutant FOD-W, 372nd lysine of SEQ ID NO: 1 replaced with tryptophan, SEQ ID NO: 2 (Fusarium oxysporum, UniProt X0D315, K373W). In words: Substrate specificity and Km of mutant FOD-W (372nd lysine replaced with tryptophan). Conditions: substrate glycated amino acid, "below limit" = below the detection limit. As for the experimental part: as §1, §2, §3
as §4, with “protein. […]” for “protein.”

Assay [3] deals with Fusarium oxysporum IFO-9972 fructosyl amino acid oxidase (FOD), wild type (372nd lysine), SEQ ID NO: 1 (Fusarium oxysporum, UniProt X0D315). In words: Substrate specificity of FOD, Table 6 (372nd amino acid Lysine, wild type). Conditions: for Kcat: substrate glycated amino acid. The procedure: as §1, §2, §3, §4
The target of assay [4] is Fusarium oxysporum IFO-9972 fructosyl amino acid oxidase (FOD), mutant with 372nd lysine of SEQ ID NO: 1 replaced with threonine (Fusarium oxysporum, UniProt X0D315, K373T). The experiment in a line: Substrate specificity of mutant FOD, Table 6 (372nd lysine replaced with threonine). Particulars: for Kcat: substrate glycated amino acid. The procedure:
as §1, §2, §3, §4

Assay [5] has as its target Fusarium oxysporum IFO-9972 fructosyl amino acid oxidase (FOD), mutant FOD-M, 372nd lysine of SEQ ID NO: 1 replaced with methionine, SEQ ID NO: 3 (Fusarium oxysporum, UniProt X0D315, K373M). In words: Substrate specificity of mutant FOD-M, Table 6 (372nd lysine replaced with methionine). Conditions: for Kcat: substrate glycated amino acid. As for the experimental part:
as §1, §2, §3, §4, §5

Assay [6] has as its target Fusarium oxysporum IFO-9972 fructosyl amino acid oxidase (FOD), mutant with 372nd lysine of SEQ ID NO: 1 replaced with cysteine (Fusarium oxysporum, UniProt X0D315, K373C). The experiment in a line: Substrate specificity of mutant FOD, Table 6 (372nd lysine replaced with cysteine). Particulars: for Kcat: substrate glycated amino acid. The procedure:
as §1, §2, §3, §4

The target in assay [7] is Fusarium oxysporum IFO-9972 fructosyl amino acid oxidase (FOD), mutant with 372nd lysine of SEQ ID NO: 1 replaced with serine (Fusarium oxysporum, UniProt X0D315, K373S). In words: Substrate specificity of mutant FOD, Table 6 (372nd lysine replaced with serine). Conditions: for Kcat: substrate glycated amino acid. The procedure: as §1, §2, §3, §4
Assay [8] has as its target Fusarium oxysporum IFO-9972 fructosyl amino acid oxidase (FOD), mutant with 372nd lysine of SEQ ID NO: 1 replaced with alanine (Fusarium oxysporum, UniProt X0D315, K373A). In words: Substrate specificity of mutant FOD, Table 6 (372nd lysine replaced with alanine). Conditions: for Kcat: substrate glycated amino acid. As for the experimental part: as §1, §2, §3, §4
Assay [9] concerns the target Fusarium oxysporum IFO-9972 fructosyl amino acid oxidase (FOD), mutant with 372nd lysine of SEQ ID NO: 1 replaced with arginine (Fusarium oxysporum, UniProt X0D315, K373R). The experiment in a line: Substrate specificity of mutant FOD, Table 6 (372nd lysine replaced with arginine). Particulars: for Kcat: substrate glycated amino acid. The procedure:
as §1, §2, §3
The base sequences of the mutant FOD genes obtained in Example 18 were determined according to the dideoxy method.
as §4

On to `O=C(N[C@@H](CCCCNCC1(O)OC[C@@H](O)[C@@H](O)[C@@H]1O)C(=O)O)OCc1ccccc1` (stereo partly drawn) [glycated lysine, α-carbobenzoxy-ε-D-1-deoxy-fructosyl lysine], for which the “Kcat reactivity ratio (a)/(b), glycated lysine/glycated valine” value was 1420 in assay [1]; 27.1 in [3]; 2010 in assay [4]; 745 in assay [5]; 1560 in assay [6]; 747 in assay [7]. Moreover, the “Kcat reactivity ratio (a)/(b), glycated lysine/glycated valine” value is reported as 1480 in [8] and 788 in assay [9]. In addition, the Kcat in [1] came to 1470; in assay [2], 248; in assay [3], 14900; in [4] it was 952; in [5], 853; in assay [6], 569. Moreover, the Kcat in assay [7] is 1250; in assay [8], 1790; in assay [9], 351.

Regarding `CC(C)[C@H](NCC1(O)OC[C@@H](O)[C@@H](O)[C@@H]1O)C(=O)O` (some centres unmarked) [glycated valine, 1-deoxy-fructosyl valine], the Kcat in [1] is on record as 1.04; in assay [2] it was “below limit”; in assay [3], 549; in [4] it was 0.47; in assay [5], 1.14; in assay [6], 0.37. Moreover, the Kcat was 1.68 in assay [7], 1.21 in assay [8] and 0.45 in [9].

Values taken from patent publication US7250269B2, “Composition for assaying glycoprotein” (Asahi Kasei Pharma Corporation, priority 2001, dated 2007).
